# Data reported in article PMC2248166, “Quantitative peptide binding motifs for 19 human and mouse MHC class I molecules derived using positional scanning combinatorial peptide libraries” (Immunome Research, 2008).
# Target: HLA A*3001 (Homo sapiens, UniProt P04439, D140H/D185E/E176W/F33S/G80R/H175R/K168Q/R138E/R41S)
# Test: biochemical
# Assay type: binding
# Conditions: not given
row,Sequence,"Normalized average relative binding affinity (ARB), HLA A*3001"
1,XXQXXXXXX [3064.0054],0.014
2,XXRXXXXXX [3064.0055],1.0
3,XXSXXXXXX [3064.0056],0.040
4,XXTXXXXXX [3064.0057],0.0040

# Target: HLA A*3201 (Homo sapiens, UniProt P04439, A270S/D101S/D185E/E176V/E277Q/F133L/G103R/G107R/G231S/H175R/I121M/I218V/I322F/K168Q/L105A/L300P/L318F/M331R/P208A/P217A/Q94H/R106L/R138Q/S129P/T104I/T323A/T345S/V100E/V321M/V358M)
# Test: biochemical
# Assay type: binding
# Conditions: not given
row,Sequence,"Normalized average relative binding affinity (ARB), HLA A*3201"
1,XXQXXXXXX [3064.0054],0.45
2,XXRXXXXXX [3064.0055],0.19
3,XXSXXXXXX [3064.0056],0.29
4,XXTXXXXXX [3064.0057],0.16

# Target: HLA A*6802 (Homo sapiens, UniProt P04439, A269V/D140Y/D185E/E176V/E277Q/E87N/F33Y/G231S/I121R/I166T/I218V/L180W/L300P/L318F/N151K/P208A/P217A/Q86R/R138H/R169H/S129P/T345S/V36M)
# Test: not given
# Assay type: binding
# Conditions: not given
row,Sequence,"Normalized average relative binding affinity (ARB), HLA A*6802"
1,XXQXXXXXX [3064.0054],0.12
2,XXRXXXXXX [3064.0055],0.018
3,XXSXXXXXX [3064.0056],0.50
4,XXTXXXXXX [3064.0057],0.14

# Target: HLA B*0702 (Homo sapiens, UniProt P01889)
# Test: not given
# Assay type: binding
# Conditions: positional scanning combinatorial 9-mer library; normalized to 1.0 for the best residue at each position
row,Sequence,"Normalized average relative binding affinity (ARB), HLA B*0702"
1,XXQXXXXXX [3064.0054],0.19
2,XXRXXXXXX [3064.0055],0.63
3,XXSXXXXXX [3064.0056],0.093
4,XXTXXXXXX [3064.0057],0.035

# Target: HLA B*0801 (Homo sapiens, UniProt P01889, A93T/A95T/D138N/E176V/E187T/K202T/Q94N/R180D/S35A/V36M/Y33D/Y91F)
# Test: biochemical
# Assay type: binding
# Conditions: not given
row,Sequence,"Normalized average relative binding affinity (ARB), HLA B*0801"
1,XXQXXXXXX [3064.0054],0.062
2,XXRXXXXXX [3064.0055],1.0
3,XXSXXXXXX [3064.0056],0.057
4,XXTXXXXXX [3064.0057],0.054

# Target: HLA B*1501 (Homo sapiens, UniProt P01889, A329T/A93T/A95T/C349S/D201E/D98Y/E187L/E204Q/E69M/E70A/K202T/N87E/Q94N/R155S/R180W/S121R/S35A/S48A/V306I/V36M/Y140S/Y91S)
# Test: biochemical
# Assay type: binding
# Conditions: not given
row,Sequence,"Normalized average relative binding affinity (ARB), HLA B*1501"
1,XXQXXXXXX [3064.0054],0.30
2,XXRXXXXXX [3064.0055],0.69
3,XXSXXXXXX [3064.0056],0.41
4,XXTXXXXXX [3064.0057],0.12

# Target: HLA B*1503 (Homo sapiens, UniProt P01889, A329T/A93T/A95T/C349S/D201E/D98Y/E187L/E204Q/K202T/N87E/Q94N/R155S/R180L/S121R/S35A/V306I/V36M/Y140S/Y91S)
# Test: biochemical
# Assay type: binding
# Conditions: not given
row,Sequence,"Normalized average relative binding affinity (ARB), HLA B*1503"
1,XXQXXXXXX [3064.0054],0.062
2,XXRXXXXXX [3064.0055],0.25
3,XXSXXXXXX [3064.0056],0.41
4,XXTXXXXXX [3064.0057],0.23

# Target: HLA B*2705 (Homo sapiens, UniProt P01889, D138H/D201E/E176V/E204Q/G107R/H137Y/K202T/N104T/N87E/Q56L/Q94K/R106L/R155S/R180L/S101D/S121N/S48T/Y140D/Y33H/Y91C)
# Test: not given
# Assay type: binding
# Conditions: positional scanning combinatorial 9-mer library; normalized to 1.0 for the best residue at each position
row,Sequence,"Normalized average relative binding affinity (ARB), HLA B*2705"
1,XXQXXXXXX [3064.0054],0.12
2,XXRXXXXXX [3064.0055],0.16
3,XXSXXXXXX [3064.0056],0.27
4,XXTXXXXXX [3064.0057],0.26

# Target: HLA B*3501 (Homo sapiens, UniProt P01889, A329T/A93T/A95T/C349S/D201E/D98Y/E176V/E187L/E204Q/E69T/I218V/K202T/L119I/Q94N/R155S/R180L/S121R/S35A/S48A/T118I/V127L/V306I/V36M/Y140S/Y91F)
# Test: not given
# Assay type: binding
# Conditions: not given
row,Sequence,"Normalized average relative binding affinity (ARB), HLA B*3501"
1,XXQXXXXXX [3064.0054],0.27
2,XXRXXXXXX [3064.0055],0.074
3,XXSXXXXXX [3064.0056],0.11
4,XXTXXXXXX [3064.0057],0.14

# Target: HLA B*5101 (Homo sapiens, UniProt P01889, A329T/A93T/A95T/C349S/D138N/D201E/D98Y/E187L/E204Q/E69T/G107R/I218V/K202T/L105A/L119W/N104I/Q94N/R106L/R155S/R180L/S101N/S121T/S35A/S48A/V306I/V36M/Y195H/Y91F)
# Test: not given
# Assay type: binding
# Conditions: not given
row,Sequence,"Normalized average relative binding affinity (ARB), HLA B*5101"
1,XXQXXXXXX [3064.0054],0.20
2,XXRXXXXXX [3064.0055],0.33
3,XXSXXXXXX [3064.0056],0.16
4,XXTXXXXXX [3064.0057],0.14

# Target: HLA B*5301 (Homo sapiens, UniProt P01889, A329T/A93T/A95T/C349S/D201E/D98Y/E176V/E187L/E204Q/E69T/G107R/I218V/K202T/L105A/L119I/N104I/Q94N/R106L/R155S/R180L/S101N/S121R/S35A/S48A/T118I/V127L/V306I/V36M/Y140S/Y91F)
# Test: not given
# Assay type: binding
# Conditions: not given
row,Sequence,"Normalized average relative binding affinity (ARB), HLA B*5301"
1,XXQXXXXXX [3064.0054],0.13
2,XXRXXXXXX [3064.0055],0.029
3,XXSXXXXXX [3064.0056],0.15
4,XXTXXXXXX [3064.0057],0.045

# Target: HLA B*5401 (Homo sapiens, UniProt P01889, A329T/C349S/D138N/D201E/E176V/E187T/E204Q/E69G/I76V/K202T/L119W/R155S/R180L/S121T/S35A/S48A/V127L/V306I/V36M/Y140L)
# Test: not given
# Assay type: binding
# Conditions: not given
row,Sequence,"Normalized average relative binding affinity (ARB), HLA B*5401"
1,XXQXXXXXX [3064.0054],0.055
2,XXRXXXXXX [3064.0055],0.062
3,XXSXXXXXX [3064.0056],0.014
4,XXTXXXXXX [3064.0057],0.012

# Target: HLA B*5801 (Homo sapiens, UniProt P01889, A329T/C349S/D201E/D98Y/E176V/E187L/E204Q/E69T/G107R/I218V/I90N/K202T/L105A/L119I/N104I/N87E/Q89R/Q94S/R106L/R155S/R180L/R86G/S101N/S121R/S35A/S48A/T118I/V127L/V306I/V36M/Y140S/Y91M)
# Test: not given
# Assay type: binding
# Conditions: not given
row,Sequence,"Normalized average relative binding affinity (ARB), HLA B*5801"
1,XXQXXXXXX [3064.0054],0.15
2,XXRXXXXXX [3064.0055],0.058
3,XXSXXXXXX [3064.0056],0.33
4,XXTXXXXXX [3064.0057],0.39

# Target: HLA B*5802 (Homo sapiens, UniProt P01889, A329T/C349S/D201E/D98Y/E176V/E187L/E204Q/E69T/G107R/I218V/I90N/K202T/L105A/N104I/N87E/Q89R/Q94S/R106L/R155S/R180L/R86G/S101N/S121W/S35A/S48A/V127L/V306I/V36M/Y140S/Y91M)
# Test: not given
# Assay type: binding
# Conditions: not given
row,Sequence,"Normalized average relative binding affinity (ARB), HLA B*5802"
1,XXQXXXXXX [3064.0054],0.098
2,XXRXXXXXX [3064.0055],0.38
3,XXSXXXXXX [3064.0056],0.066
4,XXTXXXXXX [3064.0057],0.16

# Target: H-2 D^b (Mus musculus, UniProt P01899)
# Test: not given
# Assay type: binding
# Conditions: not given
# Chain of H-2 D^b (P01887 21-119): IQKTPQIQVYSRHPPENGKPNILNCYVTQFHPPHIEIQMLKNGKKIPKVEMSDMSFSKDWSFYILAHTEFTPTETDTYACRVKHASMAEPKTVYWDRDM
# Chain of H-2 D^b (P01899 25-362): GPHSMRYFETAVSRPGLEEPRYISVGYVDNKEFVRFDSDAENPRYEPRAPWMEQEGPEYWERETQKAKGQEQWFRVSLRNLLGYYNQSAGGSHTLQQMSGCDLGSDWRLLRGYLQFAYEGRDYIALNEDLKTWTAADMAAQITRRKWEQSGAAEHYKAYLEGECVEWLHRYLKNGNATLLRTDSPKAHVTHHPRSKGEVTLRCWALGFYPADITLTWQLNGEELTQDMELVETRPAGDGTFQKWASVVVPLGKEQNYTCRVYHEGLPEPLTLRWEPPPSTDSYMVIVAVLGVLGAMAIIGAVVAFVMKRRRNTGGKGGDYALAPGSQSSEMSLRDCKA
row,Sequence,"Normalized average relative binding affinity (ARB), H-2 Db"
1,XXQXXXXXX [3064.0054],0.098
2,XXRXXXXXX [3064.0055],0.023
3,XXSXXXXXX [3064.0056],0.084
4,XXTXXXXXX [3064.0057],0.057

# Target: H-2 D^d (Mus musculus, UniProt P01900)
# Test: not given
# Assay type: binding
# Conditions: not given
# Chain of H-2 D^d (P01900 whole entry, looked up): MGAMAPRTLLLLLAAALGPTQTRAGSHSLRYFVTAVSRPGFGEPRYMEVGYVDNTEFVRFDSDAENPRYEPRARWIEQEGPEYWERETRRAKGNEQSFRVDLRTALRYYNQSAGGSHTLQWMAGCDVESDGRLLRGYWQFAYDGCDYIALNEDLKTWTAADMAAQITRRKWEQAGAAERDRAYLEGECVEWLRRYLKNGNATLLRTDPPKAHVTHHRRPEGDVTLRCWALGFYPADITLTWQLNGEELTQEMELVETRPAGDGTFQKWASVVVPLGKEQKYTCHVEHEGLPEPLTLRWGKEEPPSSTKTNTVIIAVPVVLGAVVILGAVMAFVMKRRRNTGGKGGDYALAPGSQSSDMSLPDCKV
row,Sequence,"Normalized average relative binding affinity (ARB), H-2 Dd"
1,XXQXXXXXX [3064.0054],0.012
2,XXRXXXXXX [3064.0055],0.0031
3,XXSXXXXXX [3064.0056],0.0061
4,XXTXXXXXX [3064.0057],0.0048

# Target: H-2 K^k (Mus musculus, UniProt P04223)
# Test: not given
# Assay type: binding
# Conditions: not given
# Chain of H-2 K^k (P01887 21-119): as the sequence (P01887 21-119) above
# Chain of H-2 K^k (P04223 22-369): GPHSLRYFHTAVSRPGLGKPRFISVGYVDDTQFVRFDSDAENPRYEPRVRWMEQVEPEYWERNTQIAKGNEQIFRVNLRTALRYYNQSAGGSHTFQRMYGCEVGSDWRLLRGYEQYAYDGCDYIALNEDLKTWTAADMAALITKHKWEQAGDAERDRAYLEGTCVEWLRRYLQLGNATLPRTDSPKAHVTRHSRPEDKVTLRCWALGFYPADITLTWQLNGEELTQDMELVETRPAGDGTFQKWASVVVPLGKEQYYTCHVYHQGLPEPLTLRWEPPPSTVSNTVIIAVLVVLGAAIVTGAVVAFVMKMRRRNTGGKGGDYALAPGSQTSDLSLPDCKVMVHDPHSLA
row,Sequence,"Normalized average relative binding affinity (ARB), H-2 Kk"
1,XXQXXXXXX [3064.0054],0.42
2,XXRXXXXXX [3064.0055],0.19
3,XXSXXXXXX [3064.0056],0.43
4,XXTXXXXXX [3064.0057],0.11

# Target: HLA A*0201 (Homo sapiens, UniProt P04439, D140Y/D185E/D98H/E176V/E277Q/G131W/G231S/I119V/I121R/I166T/I218V/L300P/L318F/N151K/N90K/P208A/P217A/Q86G/Q94H/R138H/R169H/T345S)
# Test: not given
# Conditions: positional scanning combinatorial 9-mer library; normalized to 1.0 for the best residue at each position
row,Sequence,"Normalized average relative binding affinity (ARB), HLA A*0201"
1,XXQXXXXXX [3064.0054],0.20
2,XXRXXXXXX [3064.0055],0.019
3,XXSXXXXXX [3064.0056],0.17
4,XXTXXXXXX [3064.0057],0.14
